Assay results published in PubChem BioAssay (NCI).
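Compound exposure: 48 hours, 5 concentrations, 96-well plates. TGI: concentration producing complete growth inhibition.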

Columns and labels:
Assay in all cases: NCI-60 cell line screen, 48 h
A549 NSCLC = system: A549 NSCLC
UACC-62 melanoma = system: UACC-62 melanoma
T-47D breast = system: T-47D breast
K-562 leukemia = system: K-562 leukemia
IGROV1 ovarian = system: IGROV1 ovarian
SK-MEL-28 melanoma = system: SK-MEL-28 melanoma
SW-620 colon = system: SW-620 colon
TK-10 renal = system: TK-10 renal
HL-60(TB) leukemia = system: HL-60(TB) leukemia
NCI-H23 lung = system: NCI-H23 lung
MDA-N = system: MDA-N
PC-3 prostate = system: PC-3 prostate
SK-MEL-2 melanoma = system: SK-MEL-2 melanoma
ACHN renal = system: ACHN renal
NCI-H226 lung = system: NCI-H226 lung
HOP-62 NSCLC = system: HOP-62 NSCLC
SF-539 CNS = system: SF-539 CNS
SNB-75 CNS = system: SNB-75 CNS
HS 578T breast = system: HS 578T breast
NCI-H522 lung = system: NCI-H522 lung

Compound	TGI (A549 NSCLC) [µM]	TGI (UACC-62 melanoma) [µM]	TGI (T-47D breast) [µM]	TGI (K-562 leukemia) [µM]	TGI (IGROV1 ovarian) [µM]	TGI (SK-MEL-28 melanoma) [µM]	TGI (SW-620 colon) [µM]	TGI (TK-10 renal) [µM]	TGI (HL-60(TB) leukemia) [µM]	TGI (NCI-H23 lung) [µM]	TGI (MDA-N) [µM]	TGI (PC-3 prostate) [µM]	TGI (SK-MEL-2 melanoma) [µM]	TGI (ACHN renal) [µM]	TGI (NCI-H226 lung) [µM]	TGI (HOP-62 NSCLC) [µM]	TGI (SF-539 CNS) [µM]	TGI (SNB-75 CNS) [µM]	TGI (HS 578T breast) [µM]	TGI (NCI-H522 lung) [µM]
O=C1c2sccc2C(=O)c2c(CO)csc21	6.7	5.67	17.5	> 100	17.7	38.3	> 86.5	23	6.08	5.95	3.16	> 32.8	8.63	12.2	15	25.5	14.8	15.1	33.7	13.6
Cc1nnc(N)s/c1=N/O	> 100	> 100	> 100	> 100	> 100	> 100	> 100	> 100	> 100	> 100	> 100	> 100	> 100	> 100	> 100	> 100	> 100	> 100	> 100	> 100
Clc1cc2ncn(C3CCCO3)c2cc1Cl (stereo not given)	> 100	> 100	> 100	> 100	69.5	> 100	> 100	> 100	> 100	> 100	> 100	> 100	> 100	> 100	> 100	> 100	> 100	> 100	> 100	> 100
